# Tested on: MTT (mouse pheochromocytoma)
# Experiment: IC50 of cell viability (ATP content)
# Conditions: (24 or 48 h)
# How it was run: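 The IC50 was fitted with a four-parameter logistic equation to normalised CellTiter-Glo ATP luminescence from MTT mouse pheochromocytoma cells. These cells, in white 1536-well plates, had been treated for 24 or 48 hrs with library compounds at 8 final concentrations between 0.5 nM and 46 µM, and luminescence was read after 15 minutes. Positive-control wells served as 100% and DMSO wells as 0%.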
row,Structure (SMILES),IC50 of cell viability [µM]
1,Cc1c(O)cc2c(c1C)O[C@](C)(CCC[C@H](C)CCC[C@H](C)CCCC(C)C)CC2,> 46
2,CC(C)OC(=O)c1cc2c(OCC(O)CNC(C)(C)C)cccc2[nH]1 (stereo unspecified),> 46
3,Cc1cccc(Nc2cc(Cl)nc(SCC(=O)O)n2)c1C,> 46
4,CCc1ccc(S(=O)(=O)O)cc1,> 46
5,CCCCCCC(=O)CCCCCC/C=C/C[C@@H](O)[C@H](O)[C@@](N)(CO)C(=O)O,> 46
6,CCCSc1cc(OC)c(CCN)cc1OC,> 46
7,CC[C@@H](O)C(C[C@@H](C)N(C)C)(c1ccccc1)c1ccccc1,> 46
8,CC[C@H](O)C(C[C@H](C)N(C)C)(c1ccccc1)c1ccccc1,> 46
9,CC[C@H](OC(C)=O)C(C[C@H](C)NC)(c1ccccc1)c1ccccc1,> 46
10,CC[N+](CC)(CC(=O)Nc1c(C)cccc1C)Cc1ccccc1.O=C([O-])c1ccccc1,> 46
11,CN1C(=O)COc2c(C(=O)NC3CN4CCC3CC4)cc(Cl)cc21 (stereo unspecified),> 46
12,CN1C2CCC1CC(OC(=O)c1cc(Cl)cc(Cl)c1)C2 (stereo unspecified),> 46
13,COc1cc(CCN)c(OC)cc1Br,> 46
14,COc1cc2c(cc1OC)[C@@H](c1ccccc1)CN(C)CC2.O=C(O)/C=C\C(=O)O,> 46
15,ClC1=C(Cl)C2(Cl)C(CBr)CC1(Cl)C2(Cl)Cl (stereo unspecified),> 46
16,F/C(COc1ccc2c(c1)[nH]c1ccccc12)=C1/CN2CCC1CC2,> 46
17,C1CCNCC1.Oc1ncnc2[nH]cc(CN3CCCCC3)c12,> 46
18,O=C(O)CCCO,> 46
19,CCOC(=O)C(CS)NCCN[C@@H](CS)C(=O)OCC (stereo partly specified),> 46

# Other lines, results leading:
row,IC50 of cell viability [µM],Structure (SMILES)
1,> 46,CC(=O)NC\1=N\C(=O)N(\C=C1)C2COC(COC(=O)C3=CC=CC=C3)O2 (stereo unspecified)
2,> 46,C=C1CC2C3C=C(C)C4=CC(=O)CCC4(C)C3CCC2(C)[C@@]1(OC(C)=O)C(C)=O (stereo partly specified)
3,> 46,CC1(C)CO[C@@H](CC(=O)O)CN1
4,> 46,CCC(=O)OC1CCC2C3CCc4cc(O)ccc4C3CCC12C (stereo unspecified)
5,> 46,CCC(=O)Oc1ccc2c(c1)CCC1C2CC[C@]2(C)C(OC(=O)CC)CCC12 (stereo partly specified)
6,> 46,CCCc1c(OCCCCc2nnn[nH]2)ccc(C(C)=O)c1O
7,> 46,CCCCCCCCCCCCCCCCCC[N+](C)(C)CCC[Si](OC)(OC)OC
8,> 46,CCN(CC)C(=O)c1cc([S+](=O)([O-])Cc2ccccc2)c(N2CCC(c3ccccc3)CC2)cc1N(CC)CCN(C)C
9,> 46,COc1ccc(C2NC(=S)N3C(c4ccc(OC)c(OC)c4)NC(=S)N23)cc1OC (stereo unspecified)
10,> 46,COc1ccccc1N1CCN(CCCCNC(=O)c2ccc(-c3ccc(C(C)=O)cc3)cc2)CC1
11,> 46,C[C@@]12CCC[C@H]1[C@@H]1CC[C@H]3C[C@@H](O)CC[C@]3(C)[C@H]1CC2
12,> 46,Cc1c(C(=O)NCCO)[n+](=O)c2ccccc2n1[O-]
13,> 46,Cl.Cn1ccc2cc3c(cc21)CCN3C(=O)Nc1cccnc1
14,> 46,Nc1nc(Cl)nc2c1ncn2C1CC(O)C(CO)O1 (stereo unspecified)
15,> 46,O=C1c2ccccc2-c2n[nH]c3cccc1c23
16,> 46,O=C(O)CN(CCOCCOCCN(CC(=O)O)CC(=O)O)CC(=O)O
17,> 46,O=C(O)[C@H]1C[C@@H](CP(=O)(O)O)CCN1
18,> 46,OC(CN1CCCCC1)c1cc(-c2ccccc2)on1 (stereo unspecified)
19,> 46,C=C(NCc1ccccc1)c1ccccc1O
20,> 46,O=C(NOCC(O)CO)c1ccc(F)c(F)c1Nc1ccc(I)cc1F (stereo unspecified)
21,> 46,NCCO/C=C/C(N)C(=O)O (stereo unspecified)
22,> 46,C[C@H](O)CN(C)C

# — the supplement of paper PMC3974653
